Measurements reported in the NIST ThermoML archive (doi:10.1021/je100765j).

Test: refractive index (Na D-line) (dimensionless); xn = mol fraction of the nth substance listed
Conditions: 101 kPa, Liquid, Standard Abbe refractometry

CC(C)CCl [1-chloro-2-methylpropane] + CC(C)OC(C)C
refractive index
Conditions | 283.15 K | 288.15 K | 293.15 K | 298.15 K | 303.15 K | 308.15 K | 313.15 K
x1 = 0.0549 | 1.37495 | 1.37221 | 1.36949 | 1.36663 | 1.36379 | 1.36095 | 1.35806
x1 = 0.091 | 1.3759 | 1.37316 | 1.37043 | 1.36757 | 1.36474 | 1.36188 | 1.359
x1 = 0.1977 | 1.37869 | 1.37595 | 1.37322 | 1.37038 | 1.36754 | 1.36469 | 1.36182
x1 = 0.2934 | 1.38128 | 1.37855 | 1.37581 | 1.37298 | 1.37015 | 1.3673 | 1.36444
x1 = 0.3911 | 1.38404 | 1.38131 | 1.37857 | 1.37575 | 1.37292 | 1.37008 | 1.36723
x1 = 0.5137 | 1.38762 | 1.38488 | 1.38213 | 1.37932 | 1.37649 | 1.37365 | 1.37081
x1 = 0.6034 | 1.39034 | 1.3876 | 1.38484 | 1.38205 | 1.37922 | 1.37638 | 1.37354
x1 = 0.6769 | 1.39263 | 1.38989 | 1.38713 | 1.38435 | 1.38152 | 1.37868 | 1.37585
x1 = 0.8059 | 1.3968 | 1.39405 | 1.39129 | 1.38852 | 1.38568 | 1.38285 | 1.38003
x1 = 0.9111 | 1.40038 | 1.39764 | 1.39487 | 1.39212 | 1.38928 | 1.38645 | 1.38364
x1 = 0.9646 | 1.40226 | 1.39951 | 1.39674 | 1.394 | 1.39116 | 1.38833 | 1.38553

CCCCCl [1-chlorobutane] + CC(C)OC(C)C
refractive index
Conditions | 283.15 K | 288.15 K | 293.15 K | 298.15 K | 303.15 K | 308.15 K | 313.15 K
x1 = 0.0466 | 1.37486 | 1.37213 | 1.36941 | 1.36656 | 1.36373 | 1.36088 | 1.35801
x1 = 0.0991 | 1.37637 | 1.37364 | 1.37092 | 1.36807 | 1.36525 | 1.3624 | 1.35953
x1 = 0.1918 | 1.37915 | 1.37643 | 1.37372 | 1.3709 | 1.36808 | 1.36524 | 1.3624
x1 = 0.32 | 1.38331 | 1.38059 | 1.37788 | 1.37509 | 1.37227 | 1.36944 | 1.36662
x1 = 0.4199 | 1.38643 | 1.38374 | 1.38104 | 1.37827 | 1.37544 | 1.37262 | 1.36983
x1 = 0.516 | 1.38968 | 1.38698 | 1.38428 | 1.38153 | 1.37872 | 1.37592 | 1.37315
x1 = 0.623 | 1.39338 | 1.39068 | 1.38799 | 1.38527 | 1.38246 | 1.37967 | 1.37693
x1 = 0.7154 | 1.39669 | 1.39399 | 1.3913 | 1.38859 | 1.3858 | 1.38301 | 1.38028
x1 = 0.8157 | 1.40037 | 1.39768 | 1.39499 | 1.39231 | 1.38954 | 1.38677 | 1.38407
x1 = 0.9098 | 1.40395 | 1.40125 | 1.39856 | 1.39594 | 1.39315 | 1.3904 | 1.38773
x1 = 0.9559 | 1.40572 | 1.40303 | 1.40034 | 1.3977 | 1.39493 | 1.39216 | 1.38952

CC(C)(C)Cl [2-chloro-2-methylpropane] + CC(C)OC(C)C
refractive index
Conditions | 283.15 K | 288.15 K | 293.15 K | 298.15 K | 303.15 K | 308.15 K | 313.15 K
x1 = 0.049 | 1.37426 | 1.37152 | 1.36878 | 1.36591 | 1.36307 | 1.36021 | 1.35731
x1 = 0.0996 | 1.37498 | 1.37223 | 1.36948 | 1.36661 | 1.36376 | 1.36089 | 1.35799
x1 = 0.1991 | 1.37645 | 1.37368 | 1.37091 | 1.36803 | 1.36516 | 1.36228 | 1.35936
x1 = 0.3212 | 1.37834 | 1.37555 | 1.37275 | 1.36986 | 1.36697 | 1.36407 | 1.36114
x1 = 0.4189 | 1.37994 | 1.37712 | 1.37431 | 1.3714 | 1.3685 | 1.36559 | 1.36263
x1 = 0.5148 | 1.38157 | 1.37874 | 1.3759 | 1.37299 | 1.37006 | 1.36713 | 1.36416
x1 = 0.6213 | 1.38348 | 1.38063 | 1.37775 | 1.37483 | 1.37189 | 1.36894 | 1.36595
x1 = 0.7152 | 1.38524 | 1.38237 | 1.37947 | 1.37654 | 1.37357 | 1.37061 | 1.3676
x1 = 0.8138 | 1.38719 | 1.3843 | 1.38137 | 1.37843 | 1.37543 | 1.37245 | 1.36942
x1 = 0.9079 | 1.38915 | 1.38623 | 1.38327 | 1.38031 | 1.3773 | 1.3743 | 1.37125
x1 = 0.9552 | 1.39016 | 1.38723 | 1.38426 | 1.3813 | 1.37827 | 1.37526 | 1.3722

CCC(C)Cl (stereo not drawn) [2-chlorobutane] + CC(C)OC(C)C
refractive index
Conditions | 283.15 K | 288.15 K | 293.15 K | 298.15 K | 303.15 K | 308.15 K | 313.15 K
x1 = 0.0519 | 1.37477 | 1.37203 | 1.36931 | 1.36644 | 1.36361 | 1.36077 | 1.35788
x1 = 0.0988 | 1.37587 | 1.37314 | 1.37041 | 1.36756 | 1.36473 | 1.36189 | 1.359
x1 = 0.2006 | 1.37839 | 1.37566 | 1.37294 | 1.37009 | 1.36727 | 1.36443 | 1.36155
x1 = 0.3211 | 1.38155 | 1.37883 | 1.3761 | 1.37326 | 1.37044 | 1.3676 | 1.36473
x1 = 0.4201 | 1.38427 | 1.38154 | 1.37882 | 1.37599 | 1.37317 | 1.37033 | 1.36746
x1 = 0.532 | 1.38745 | 1.38472 | 1.38199 | 1.37917 | 1.37636 | 1.37353 | 1.37067
x1 = 0.6244 | 1.39016 | 1.38743 | 1.3847 | 1.38189 | 1.37908 | 1.37626 | 1.3734
x1 = 0.726 | 1.39324 | 1.39051 | 1.38778 | 1.38498 | 1.38218 | 1.37936 | 1.37651
x1 = 0.8163 | 1.39608 | 1.39336 | 1.39063 | 1.38784 | 1.38505 | 1.38224 | 1.3794
x1 = 0.8817 | 1.39819 | 1.39548 | 1.39275 | 1.38997 | 1.38719 | 1.38438 | 1.38154
x1 = 0.9634 | 1.40097 | 1.39825 | 1.39552 | 1.39276 | 1.38997 | 1.38716 | 1.38434
